Laboratory results as given in patent US20230312587A1, “PTERIDINONE COMPOUNDS AND USES THEREOF” (Vertex Pharmaceutical Incorporated, priority 2018, published 2023).

Experiments:
[1] = system: Colo205-TCF/LEF-Luciferase (Luc) tumor; test: In vivo inhibition of TCF/LEF reporter activity in Colo-205 tumors; parameters: concentration or dose not given beside the values; settings: TCF/LEF luciferase reporter in Colo-205 tumors, nu/nu mice, oral gavage
How it was run: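 Female nu/nu mice carried subcutaneous Colo205-TCF/LEF-luciferase tumours (200–500 mm^3), n=4 per group. Compound was given by oral gavage in 1:3:5:1 EtOH:DMSO:PEG-400:H2O at 10 ml/kg, with vehicle as control. Luciferase activity in tumour lysates (Steady-Glo) was normalised to BCA protein.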

[2] = target: HEK293 membranes over-expressing WFS-1 (Homo sapiens (Human), UniProt O76024); test: Radioligand displacement assay (tritiated Compound 136 probe); format: binding; settings: displacement of tritiated Compound 136
How it was run: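 WFS-1-overexpressing HEK293 membranes were preincubated 10 min with compound, then tritiated probe was added for 90 min at room temperature. Bound probe was collected by filtration on PEI-pretreated GF/B filters, washed and scintillation-counted. IC50 came from a 3-parameter fit of bound probe vs compound concentration.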

HepG2 XBP1(u)-Luc cells = test: HepG2 XBP1 reporter assay; format: cell-based; settings: 6 h
How it was run: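 Reporter cells are HepG2 stably carrying unspliced XBP1 fused to firefly luciferase, which becomes in-frame after IRE1alpha-mediated splicing. SteadyGlo luminescence was normalized to DMSO-treated cells for IC50 calculation.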

Sequence of HEK293 membranes over-expressing WFS-1 (O76024 whole entry): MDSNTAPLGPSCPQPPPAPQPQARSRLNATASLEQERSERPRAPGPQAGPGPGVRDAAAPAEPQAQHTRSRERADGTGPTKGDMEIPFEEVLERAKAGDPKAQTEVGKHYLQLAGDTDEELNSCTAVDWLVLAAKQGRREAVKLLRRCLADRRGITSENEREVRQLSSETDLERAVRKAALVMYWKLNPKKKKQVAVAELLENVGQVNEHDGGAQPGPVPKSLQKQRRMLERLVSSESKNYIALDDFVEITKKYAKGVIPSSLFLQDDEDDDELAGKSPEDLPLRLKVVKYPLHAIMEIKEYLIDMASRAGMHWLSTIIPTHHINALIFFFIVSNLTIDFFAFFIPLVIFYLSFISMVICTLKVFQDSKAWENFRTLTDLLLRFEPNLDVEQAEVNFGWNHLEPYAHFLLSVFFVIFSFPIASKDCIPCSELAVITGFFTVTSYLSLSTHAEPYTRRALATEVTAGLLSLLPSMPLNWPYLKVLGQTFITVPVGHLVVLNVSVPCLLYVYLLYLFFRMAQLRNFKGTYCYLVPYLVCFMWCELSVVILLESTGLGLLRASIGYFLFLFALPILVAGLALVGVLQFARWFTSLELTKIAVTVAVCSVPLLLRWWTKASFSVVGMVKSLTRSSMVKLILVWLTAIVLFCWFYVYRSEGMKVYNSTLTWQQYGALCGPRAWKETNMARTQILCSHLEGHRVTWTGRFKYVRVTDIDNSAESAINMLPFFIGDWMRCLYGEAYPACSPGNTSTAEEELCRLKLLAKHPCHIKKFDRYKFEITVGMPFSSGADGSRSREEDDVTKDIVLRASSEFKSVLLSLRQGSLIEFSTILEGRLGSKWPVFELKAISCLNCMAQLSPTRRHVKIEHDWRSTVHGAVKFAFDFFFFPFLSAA

Row | Compound | IC50 [2] [µM] | IC50 (HepG2 XBP1(u)-Luc cells; Homo sapiens) [µM] | IC50 (HepG2 XBP1(u)-Luc cells) [µM] | Percent Remaining Activity at 8 hrs after Dosing [1] [%]
1 | Cc1nc(NCc2cnn(Cc3cc(C(F)(F)F)nn3C)c2)nc2c1NC(=O)[C@H](C)N2C [Compound 160, (7S)-4,7,8-trimethyl-2-(((1-((1-methyl-3-(trifluoromethyl)-1H-pyrazol-5-yl)methyl)-1H-pyrazol-4-yl)methyl)amino)-7,8-dihydropteridin-6(5H)-one] | 0.06 to 0.6 | < 0.6 |  | 18
2 | Cc1nc(N[C@H]2C[C@H](Oc3ccnc(C(F)(F)F)c3)C2)nc2c1NC(=O)[C@H](C)N2C [Compound 335, (7S)-4,7,8-trimethyl-2-((trans-3-((2-(trifluoromethyl)pyridin-4-yl)oxy)cyclobutyl)amino)-7,8-dihydropteridin-6(5H)-one] | < 0.06 | < 0.6 |  | 18
3 | Cc1nc(NCc2cnn(Cc3ccc(C(F)(F)F)nc3)c2)nc2c1NC(=O)[C@H](C(C)C)N2C [Compound 383, (7S)-7-isopropyl-4,8-dimethyl-2-(((1-((6-(trifluoromethyl)pyridin-3-yl)methyl)-1H-pyrazol-4-yl)methyl)amino)-7,8-dihydropteridin-6(5H)-one] | < 0.06 | 0.6 to 2 |  | 36
4 | Cc1nc(C(F)(F)F)ccc1Cn1cc(CNc2nc(C)c3c(n2)N(C)[C@@H](C)C(=O)N3)cn1 [Compound 188, (S)-4,7,8-trimethyl-2-(((1-((2-methyl-6-(trifluoromethyl)pyridin-3-yl)methyl)-1H-pyrazol-4-yl)methyl)amino)-7,8-dihydropteridin-6(5H)-one] | 0.06 to 0.6 | < 0.6 |  | 15
5 | Cc1nc(NCc2cnn(Cc3cccc(C(C)C)c3)c2)nc2c1NC(=O)[C@H](C)N2C [Compound 80, (7S)-2-(((1-(3-isopropylbenzyl)-1H-pyrazol-4-yl)methyl)amino)-4,7,8-trimethyl-7,8-dihydropteridin-6(5H)-one] | < 0.06 | < 0.6 |  | 34
6 | CCN1c2nc(NCc3cnn(Cc4ccc(C(F)(F)F)nc4)c3)nc(C)c2NC(=O)[C@@H]1C [Compound 395, (7S)-8-Ethyl-4,7-dimethyl-2-(((1-((6-(trifluoromethyl)pyridin-3-yl)methyl)-1H-pyrazol-4-yl)methyl)amino)-7,8-dihydropteridin-6(5H)-one] | 0.06 to 0.6 | 0.6 to 2 |  | 19
7 | Cc1nc(N[C@H]2C[C@@H](Sc3cc(F)c(F)c(F)c3)C2)nc2c1NC(=O)[C@H](C)N2C [Compound 332, (7S)-4,7,8-trimethyl-2-((cis-3-((3,4,5-trifluorophenyl)thio)cyclobutyl)amino)-7,8-dihydropteridin-6(5H)-one] | 0.06 to 0.6 | < 0.6 |  | 51
8 | Cc1nc(NCc2cnn(Cc3ccc(C(F)(F)F)nc3)c2)nc2c1NC(=O)[C@H](C1CC1)N2C [Compound 386, (7S)-7-Cyclopropyl-4,8-dimethyl-2-(((1-((6-(trifluoromethyl)pyridin-3-yl)methyl)-1H-pyrazol-4-yl)methyl)amino)-7,8-dihydropteridin-6(5H)-one] | 0.06 to 0.6 | < 0.6 |  | 19
9 | CC[C@H]1C(=O)Nc2c(C)nc(NCc3cnn(Cc4ccc(C(F)(F)F)nc4)c3)nc2N1C [Compound 186, (7S)-7-ethyl-4,8-dimethyl-2-(((1-((6-(trifluoromethyl)pyridin-3-yl)methyl)-1H-pyrazol-4-yl)methyl)amino)-7,8-dihydropteridin-6(5H)-one] | 0.06 to 0.6 | < 0.6 |  | 23
10 | Cc1nc(NCc2cnn(Cc3ccc(F)nc3)c2)nc2c1NC(=O)[C@H](C(C)C)N2C [Compound 384, (7S)-2-(((1-((6-fluoropyridin-3-yl)methyl)-1H-pyrazol-4-yl)methyl)amino)-7-isopropyl-4,8-dimethyl-7,8-dihydropteridin-6(5H)-one] | 0.06 to 0.6 | 0.6 to 2 |  | 14
11 | Cc1nc(NCc2cnn([C@@H](C)c3ccc(C(F)(F)F)nc3)c2)nc2c1NC(=O)[C@H](C)N2C [Compound 174, (7S)-4,7,8-Trimethyl-2-(((1-((S)-1-(6-(trifluoromethyl)pyridin-3-yl)ethyl)-1H-pyrazol-4-yl)methyl)amino)-7,8-dihydropteridin-6(5H)-one] | 0.06 to 0.6 | 0.6 to 2 |  | 22
12 | Cc1nc(NCc2cnn(Cc3ccc(C(F)(F)F)cc3)c2)nc2c1NC(=O)[C@H](C)N2C [Compound 149, (7S)-4,7,8-trimethyl-2-(((1-(4-(trifluoromethyl)benzyl)-1H-pyrazol-4-yl)methyl)amino)-7,8-dihydropteridin-6(5H)-one] | 0.06 to 0.6 | < 0.6 |  | 17
13 | Cc1nc(NCc2cnn(Cc3ccnc(C(F)(F)F)c3)c2)nc2c1NC(=O)[C@H](C)N2C [Compound 207, (7S)-4,7,8-trimethyl-2-(((1-((2-(trifluoromethyl)pyridin-4-yl)methyl)-1H-pyrazol-4-yl)methyl)amino)-7,8-dihydropteridin-6(5H)-one] | 0.06 to 0.6 | < 0.6 |  | 18
14 | Cc1nc(NCc2cnn(Cc3ccc(C(F)(F)F)nc3)c2)nc2c1NC(=O)[C@H](C)N2C(C)C [Compound 385, (7S)-8-isopropyl-4,7-dimethyl-2-(((1-((6-(trifluoromethyl)pyridin-3-yl)methyl)-1H-pyrazol-4-yl)methyl)amino)-7,8-dihydropteridin-6(5H)-one] | < 0.06 | < 0.6 |  | 25
15 | Cc1nc(NCc2cnn(Cc3ccc(C(F)(F)F)nc3C(C)C)c2)nc2c1NC(=O)[C@H](C)N2C [Compound 388, (7S)-2-(((1-((2-isopropyl-6-(trifluoromethyl)pyridin-3-yl)methyl)-1H-pyrazol-4-yl)methyl)amino)-4,7,8-trimethyl-7,8-dihydropteridin-6(5H)-one] | < 0.06 | < 0.6 |  | 13

The next lines start with results.

Row | IC50 [2] [µM] | IC50 (HepG2 XBP1(u)-Luc cells; Homo sapiens) [µM] | IC50 (HepG2 XBP1(u)-Luc cells) [µM] | Compound | Percent Remaining Activity at 8 hrs after Dosing [1] [%]
16 | 0.06 to 0.6 | < 0.6 |  | Cc1nc(NCc2cnn(Cc3cc(C(F)(F)F)nn3C)c2)nc2c1NC(=O)[C@H](C(C)C)N2C [Compound 397, (7S)-7-Isopropyl-4,8-dimethyl-2-(((1-((1-methyl-3-(trifluoromethyl)-1H-pyrazol-5-yl)methyl)-1H-pyrazol-4-yl)methyl)amino)-7,8-dihydropteridin-6(5H)-one] | 23
17 | 0.06 to 0.6 |  | < 0.6 | Cc1nc(NCc2cnn(Cc3ccc(F)nc3)c2)nc2c1NC(=O)[C@H](C1CC1)N2C [Compound 421, (7S)-7-cyclopropyl-2-(((1-((6-fluoropyridin-3-yl)methyl)-1H-pyrazol-4-yl)methyl)amino)-4,8-dimethyl-7,8-dihydropteridin-6(511)-one] | 23
18 | < 0.06 | < 0.6 |  | Cc1nc(NCc2cnn(Cc3ccc(Cl)nc3)c2)nc2c1NC(=O)[C@H](C(C)C)N2C [Compound 409, (7S)-2-(((1-((6-chloropyridin-3-yl)methyl)-1H-pyrazol-4-yl)methyl)amino)-7-isopropyl-4,8-dimethyl-7,8-dihydropteridin-6(5H)-one] | 27
19 | 0.06 to 0.6 | 2 to 10 |  | Cc1nc(NCc2cnn(Cc3ccc(C(F)(F)F)nc3[C@@H](C)O)c2)nc2c1NC(=O)[C@H](C)N2C (single isomer, unassigned) [Compound 420] | 28
20 | 0.06 to 0.6 | 0.6 to 2 |  | Cc1nc(NCc2cnn(Cc3ccc(C(F)(F)F)nc3)c2)nc2c1NC(=O)C1(CCC1)N2C [Compound 398, 4′,8′-dimethyl-2′-(((1-((6-(trifluoromethyl)pyridin-3-yl)methyl)-1H-pyrazol-4-yl)methyl)amino)-5′,8′-dihydro-6′H-spiro[cyclobutane-1,7′-pteridin]-6′-one] | 83
21 | 0.06 to 0.6 | 0.6 to 2 |  | Cc1ncc(Cn2cc(CNc3nc(C)c4c(n3)N(C)[C@@H](C(C)C)C(=O)N4)cn2)cc1F [Compound 425, (7S)-2-(((1-((5-fluoro-6-methylpyridin-3-yl)methyl)-1H-pyrazol-4-yl)methyl)amino)-7-isopropyl-4,8-dimethyl-7,8-dihydropteridin-6(5H)-one] | 29
22 | 0.06 to 0.6 | < 0.6 |  | Cc1nc(NCc2cnn(Cc3cc(C(F)(F)F)nn3C)c2)nc2c1NC(=O)[C@H](C1CC1)N2C [Compound 396, (7S)-7-Cyclopropyl-4,8-dimethyl-2-(((1-((1-methyl-3-(trifluoromethyl)-1H-pyrazol-5-yl)methyl)-1H-pyrazol-4-yl)methyl)amino)-7,8-dihydropteridin-6(5H)-one] | 23
23 | < 0.06 | < 0.6 |  | Cc1nc(NCc2cnn(Cc3ccc(C(F)(F)F)nc3C(C)(C)O)c2)nc2c1NC(=O)[C@H](C)N2C [Compound 416, (7S)-2-(((1-((2-(2-hydroxypropan-2-yl)-6-(trifluoromethyl)pyridin-3-yl)methyl)-1H-pyrazol-4-yl)methyl)amino)-4,7,8-trimethyl-7,8-dihydropteridin-6(5H)-one] | 22
